Laboratory results from patent publication US11478477B2, “Method for treating cancer by combination of FAK/ALK/ROS1 inhibitor and EGFR inhibitor” (ASCENTAGE PHARMA (SUZHOU) CO., LTD., priority 2018, dated 2022).
Like-named read-outs stand apart in the source and are kept apart here. Marks after values point to notes of the source that are not given here.

Key:
[1] = system: human NCI-H1975 lung cancer mouse xenograft tumor model; assay: Example 4: Compound 5 with AZD9291 or afatinib in xenograft tumor model; type: in vivo; details: for RTV on Day 15 after administration (mean ± standard error) / T/C on Day 15 after administration (%): Compound 5 100 mg/kg, AZD9291 5 then 2 mg/kg, afatinib 10 then 5 mg/kg, orally, once per day
Excerpt: Subsequently, a H1975 cell-derived mouse xenograft tumor model was established to evaluate the anti-tumor effects of Compound 5 in combination with EGFR inhibitor AZD9291 (osimertinib) or afatinib.

NCI-H1975 tumor cells = assay: WST (CCK-8) anti-proliferation experiment, single drugs and combinations; type: cell-based; details: Homo sapiens, NCI-H1975, 72 hours
Description: Cell plating: Anti-proliferative effects were detected by a CCK-8 (Cell Counting Kit-8) assay based on water soluble tetrazolium salt (WST). The cells were seeded in 96-well plates, and only 95 μL of complete medium was added to each negative control group. 95 μL of complete medium cell suspension was added to each well to be tested, and the cell density was […]. Dosing (protection from light): In 96-well culture plates, according to the sensitivity of different cells to different drugs, the highest concentration was selected as 10 μM, and 9 concentrations were obtained by serial dilution in a ratio of 1:3.5 μL of compound was added to each well and 2-3 replicate wells were made for per concentration. After the compound was added, 96-well plates were incubated in a 5% CO2 incubator at 37° C. After 72 hours of action by using 9 different concentrations of the drug with 3 fixed doses of Compound 5, the combination effect of Compound 5 and the drug was tested. Reading: At the end of the culture, the old solution was removed from the well to be tested, and 100 μl/well CCK-8 test solution (containing 10% CCK-8, 5% FBS in the corresponding medium) was added. The plates were continuously incubated at 37° C. for 2-4 hours in a CO2 incubator. The OD values were measured using a microplate reader (SpectraMax Plus 384, Molecular Devices, LLC., US) under A450 nm. […] (O.D. of test well−O.D. of blank control well)/(O.D. of cell control well−O.D. of blank control well)×100%. IC50 values were calculated using Graphpad Prism 6.0 software for nonlinear regression data analysis method.

[2] = system: human NCI-H1975 xenograft tumor model; assay: Example 9: Compound 5 with AZD9291 or Avitinib in xenograft tumor model; type: in vivo, mouse; details: Compound 5 50 mg/kg, AZD9291 2 mg/kg, Avitinib 10 mg/kg, orally, once per day
Excerpt: (§1) The dosage regimen was as follows:

[3] = system: human NCI-H1975 xenograft tumor model; assay: Example 8: Compound 5 or Ensartinib with Avitinib in xenograft tumor model; type: in vivo, mouse; details: Compound 5 50 mg/kg; Ensartinib 20 mg/kg; Avitinib 10 mg/kg; orally, once per day, 21 days
Excerpt: as §1

[4] = single EGFR inhibitor, read-out: Compound B IC50

Row | IC50 (NCI-H1975 tumor cells; single drug, read-out: Compound A IC50) | Structure (SMILES) | RTV on Day 15 after administration (mean ± standard error) [1] | T/C on Day 15 after administration (%) [1] | tumor after discontinuation of administration ([1]; after discontinuation of administration) | IC50 (NCI-H1975 tumor cells; [4]) | RTV on Day 11 after administration (mean ± standard error) [2] | T/C on Day 11 after administration (%) [2] | RTV on Day 15 after administration (mean ± standard error) [2] | T/C on Day 15 after administration (%) [2] | RTV on Day 21 after administration (mean ± standard error) [3] | T/C on Day 21 after administration (%) [3] | T/C on Day 15 after administration (%) ([1]; listed as Afatinib)
1 |  | C=CC(=O)Nc1cc(Nc2nccc(-c3cn(C)c4ccccc34)n2)c(OC)cc1N(C)CCN(C)C [AZD9291, osimertinib] | 1.4 ± 0.2 | 6% | tumor rebound was gradually observed | 410 nM | 1.6 ± 0.3 | 1.6** % | 1.8 ± 0.2 | 16.8% |  |  | 
2 |  | C=CC(=O)Nc1cccc(Oc2nc(Nc3ccc(N4CCN(C)CC4)c(F)c3)nc3[nH]ccc23)c1 [Avitinib] |  |  |  |  | 5.9 ± 0.4 | 82.0% | 7.8 ± 0.7 | 72.4% | 13.29 ± 2.65 | 83.1% | 
3 | 3550 ± 1110 nM | Cc1cc(Nc2ncc(Cl)c(Nc3ccccc3S(=O)(=O)C(C)C)n2)c(OC(C)C)cc1C1=CCN(C2CCOCC2)CC1 [Compound 5, 5-chloro-N^2-(2-isopropoxy-5-methyl-4-(1-(tetrahydro-2H-pyran-4-yl)-1,2,3,6-tetrahydropyridin-4-yl)phenyl)-N^4-(2-(isopropylsulfonyl)phenyl)pyrimidine-2,4-diamine] | 13.8 ± 1.8 | 66.0% |  |  | 8.2 ± 0.5 | 113.8% | 10.3 ± 1.1 | 95.6% | 12.8 ± 1.5 | 80% | 
4 |  | C[C@@H]1CN(C(=O)c2ccc(NC(=O)c3cc(O[C@H](C)c4c(Cl)ccc(F)c4Cl)c(N)nn3)cc2)C[C@H](C)N1 [Ensartinib] |  |  |  |  |  |  |  |  | 9.5 ± 1.1 | 61.3% | 
5 |  | CN(C)C/C=C/C(=O)Nc1cc2c(Nc3ccc(F)c(Cl)c3)ncnc2cc1O[C@H]1CCOC1 [afatinib] | 15.5 ± 1.5 | 74% |  | 337 nM |  |  |  |  |  |  | 74.0%
